According to patent US8383679B2, “Crystal form of calcium 3-acetylaminopropane-1-sulfonate” (Merck Patent Gesellschaft mit beschränkter Haftung, priority 2008, dated 2013):

What was measured:
[1] = Enthalpy of solution, 2225 Thermometrics Solution calorimeter; assay type: physicochemical
[2] = Suspension-conversion experiments; assay type: physicochemical; settings: suspension of crystals
Description: Suitable suspension media are solvents in which the active compound is soluble, where the active compound is employed in a weight ratio in relation to the respective solvent in the suspension in which the solubility limit of the active compound in the solvent is exceeded, so that the active compound is predominantly in the form of a solid in the suspension. Suitable suspension media are, for example, water, methanol and/or tetrahydrofuran (THE), where water is particularly preferred.

Row | enthalpy of solution ([1]; in water at 25° C.) [J/g] | conversion of crystal form in suspension [2] | difference in enthalpy of solution between form II and form I ([1]; in water at 25° C.) [J/g] | Structure (SMILES) | thermodynamic stability (free Gibbs enthalpy) relative to the other crystal form ([1]; concluded from enthalpies of solution)
1 | -23.1 ± 0.2 | rearrangement to crystal form II |  | CC(=O)NCCCS(=O)(=O)O [form I, calcium 3-acetylaminopropane-1-sulfonate] | 
2 | 16.2 ± 0.2 |  | 6.9 ± 0.4 | CC(=O)NCCCS(=O)(=O)O [form II, calcium 3-acetylaminopropane-1-sulfonate] | thermodynamically more stable than form I
